Values quoted from earlier work, collected in patent US20070099940A1, “Pth agonists” (priority 2004, published 2007).

Tested on: fracture incidence
Settings: daily subcutaneous injection for up to 2 years, postmenopausal women

Compound: CC[C@H](C)[C@H](NC(=O)[C@H](CCC(=O)O)NC(=O)[C@H](CO)NC(=O)[C@@H](NC(=O)[C@@H](N)CO)C(C)C)C(=O)N[C@@H](CCC(N)=O)C(=O)N[C@@H](CC(C)C)C(=O)N[C@@H](CCSC)C(=O)N[C@@H](Cc1cnc[nH]1)C(=O)N[C@@H](CC(N)=O)C(=O)N[C@@H](CC(C)C)C(=O)NCC(=O)N[C@@H](CCCCN)C(=O)N[C@@H](Cc1cnc[nH]1)C(=O)N[C@@H](CC(C)C)C(=O)N[C@@H](CC(N)=O)C(=O)N[C@@H](CO)C(=O)N[C@@H](CCSC)C(=O)N[C@@H](CCC(=O)O)C(=O)N[C@@H](CCCN=C(N)N)C(=O)N[C@H](C(=O)N[C@@H](CCC(=O)O)C(=O)N[C@@H](Cc1c[nH]c2ccccc12)C(=O)N[C@@H](CC(C)C)C(=O)N[C@@H](CCCN=C(N)N)C(=O)N[C@@H](CCCCN)C(=O)N[C@@H](CCCCN)C(=O)N[C@@H](CC(C)C)C(=O)N[C@@H](CCC(N)=O)C(=O)N[C@@H](CC(=O)O)C(=O)N[C@H](C(=O)N[C@@H](Cc1cnc[nH]1)C(=O)N[C@@H](CC(N)=O)C(=O)N[C@@H](Cc1ccccc1)C(=O)O)C(C)C)C(C)C [PTH(1-34)]
- reduction of fracture incidence at non-vertebral sites: 40%
- reduction of fracture incidence at the spine: 65%
